One experiment addresses PLK4 (h) (Homo sapiens, UniProt O00444). In words: PLK-4 human kinase assay (SPA). It counts as biochemical. Particulars: read-out: PLK4 pIC50 (converted). As for the experimental part: (§1) The in vitro inhibition of a panel of kinases was assessed using either the scintillation proximity assay (SPA) as described by Cook, N. D. et al., Advances in Experimental Medicine and Biology (1991), 36; p. 525-528; or the Fluorescence Resonance Energy Transfer (FRET) technology as described by Rodems, S. M. et al., Assay Drug Develop. Technol. (2002), 1; p. 9-19.
(§2) In the SPA technology the activity of the kinase of interest is measured using an appropriate biotinylated substrate that is incubated with the aforementioned kinase protein in the presence of (^33P) radiolabeled ATP. (^33P) Phosporylation of the substrate is subsequently measured through binding of the phosphorylated substrate to streptavidine coated beads that are based on the scintillant poly(vinyl toluene) (PVT-Beads). The scintillation intensity is detected by imaging on Leadseeker.
(§3) All kinases are pre-diluted to a 10× working concentration prior to addition into the assay. The composition of the dilution buffer for each kinase is detailed below.
In a final reaction volume of 30 μl PLK4 (h) (19 μg/ml) is incubated with 50 mM Hepes pH 8.0, 10 mM MgCl2, 50 mM NaCl, 1 mM NaF, 1 mM DTT, 10 μM of peptide Biotin-RPRGQRDSSYYWE-OH, 1 μM ATP and 2 nM [γ-^33P-ATP] (6.0 μCi/ml). After incubation of 60 minutes at room temperature, the reaction is stopped by addition of 40 μl, of stop solution containing 8.7 mM EDTA, BSA 0.17%, 0.17% Triton X-100, 1.7 mg/ml SPA beads (GE-healthcare). The plate is centriguged and read for Scintillation imaging on Leadseeker.

A further experiment deals with AuroraB (h) (Homo sapiens, UniProt Q96GD4). In words: Aurora-B human kinase assay (SPA). It counts as biochemical. The note with it: read-out: AuroraB pIC50 (converted). As for the experimental part: as §1, §2, §3
AuroraB (h), sequence (Q96GD4 whole entry): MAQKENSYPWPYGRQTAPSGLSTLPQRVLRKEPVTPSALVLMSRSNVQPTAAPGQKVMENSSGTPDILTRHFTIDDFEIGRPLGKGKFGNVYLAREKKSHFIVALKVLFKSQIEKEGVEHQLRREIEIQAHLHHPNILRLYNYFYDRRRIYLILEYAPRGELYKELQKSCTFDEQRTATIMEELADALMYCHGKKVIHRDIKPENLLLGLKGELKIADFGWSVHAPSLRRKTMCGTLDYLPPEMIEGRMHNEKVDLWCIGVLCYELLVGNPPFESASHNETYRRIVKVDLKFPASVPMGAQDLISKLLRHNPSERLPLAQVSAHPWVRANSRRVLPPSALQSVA
In a final reaction volume of 30 μl, AuroraB (h) (0.5 μg/ml) is incubated with 60 mM Hepes pH 7.5, 3 mM MgCl2, 3 mM MnCl2, 3 μM Na3VO4, 0.05 mg/ml PEG, 2 mM DTT, 3 μM Biotin-[…]-OH, 0.5 μM ATP and 2.2 nM [γ-^33P-ATP] (6.8 μCi/ml). After incubation of 60 minutes at room temperature, the reaction is stopped by addition of 40 μL of stop solution containing 8.7 mM EDTA, BSA 0.17%, 0.17% Triton X-100, 5 mg/ml SPA beads (GE-healthcare). The plate is centriguged and read for Scintillation imaging on Leadseeker.

Another experiment concerns the target GSK3β (h) (Homo sapiens, UniProt P49841). In words: GSK-3β human kinase assay (SPA). Particulars: read-out: GSK3B pIC50 (converted). It counts as biochemical. The procedure: as §1, §2, §3
In a final reaction volume of 30 μl, GSK3β (h) (1 μg/ml) is incubated with 25 mM Tris pH 7.4, 10 mM MgCl2, 1 mM DTT, 1 μM peptide Biotin-KRREILSRRPSYR-OH, 1 μM ATP and 2 nM [γ-^33P-ATP] (6.0 μCi/ml). After incubation of 60 minutes at room temperature, the reaction is stopped by addition of […] of stop solution containing 8.7 mM EDTA, BSA 0.17%, 0.17% Triton X-100, 6.25 mg/ml SPA beads (GE-healthcare). The plate is centriguged and read for Scintillation imaging on Leadseeker.

A further experiment addresses CDK1/CyclinB (h) (Homo sapiens, UniProt P06493). In words: CDK1/CyclinB human kinase assay (FRET). It counts as biochemical. Particulars: read-out: CDK1 pIC50 (converted). As for the experimental part:
as §1
In the FRET technology the activity of the kinase of interest is measured using an appropriate substrate that is labeled with two fluorophores (coumarin and fluorescein). Phosphorylation is determined using a developing reagent comprising a protease that recognizes and cleaves nonphosphorylated peptides. Cleavage will disturb the FRET between the fluorescein and coumarin on the peptide. Uncleaved, phosphorylated peptides maintain the FRET signal. A ratiometric readout of the donor emission over the acceptor emission quantitates the reaction process.
as §3
In a final reaction volume of 10 μl, CDK1/CyclinB (h) (0.2 μg/ml) is incubated with 50 mM Hepes pH 7.5, 10 mM MgCl2, 1 mM EGTA, 0.01% Brij-35, 2 μM Z'lyte Ser/Thr peptide 12 and 10 μM ATP (Invitrogen's FRET assay). After incubation of 60 minutes at room temperature, the reaction is stopped by addition of 5 μL development reagent containing protease mix. After 60 minutes room temperature the development reaction is stopped by adding 5 μl stop solution. The plate is then read in fluorescence plate reader with excitation: 390 nm and dual emission: 460 and 538 nm. Emission ratio is determined to the formula=Emission signal intensity at 460 nm/Emission signal intensity at 538 nm.

Another experiment concerns A2780. In words: Cellular proliferation assay (Alamar blue), A2780. It counts as cell-based. The note with it: A2780 cells, 72 hours with compound, 10% FCS. The procedure:
(§4) […] functional properties of these compounds was tested in cellular proliferation assays on a panel of different cell lines in the presence of 10% FCS serum (37° C. and 5% (v/v) CO2). In a first step these cells were seeded and incubated for 24 hours in the absence of compound. In the second step the cells were incubated for 72 hours with the compounds to be tested for 72 hours. The viable cell number was finally assessed in a standard Alamar blue cell viability assay.
(§5) The viable cell number was assessed by incubation for either 4 h (HCT-116, H1299, H460) 6 h (SKOV3, HT29, U87-MG, Colo205) or 24 h (A2780, PC3, MDA-MB-231, A549, MCF-7) with Alamar blue (Resazurin 9 μg/ml, K-Ferrocyanide 90 μM K-Ferricyanide 90 μM) and the converted fluorescent product was quantified on a fluorescent plate readed (544 nm/590 nm). Effect of the compounds is calculated as of on control cells.

In the next experiment the test system is HCT-116. In words: Cellular proliferation assay (Alamar blue), HCT-116. It counts as cell-based. The note with it: HCT-116 cells, 72 hours with compound, 10% FCS. The procedure: as §4, §5
Background: The colour change of resazurin is a common sign of viable cells or microbes.

The next experiment has as its system H1299. In words: Cellular proliferation assay (Alamar blue), H1299. It counts as cell-based. The note with it: Homo sapiens, NCI-H1299, 72 h, H1299 cells, 72 hours with compound, 10% FCS, read-out: pIC50 H1299 (converted). As for the experimental part:
as §4, §5

Several values for one entry are separate records, joined by “and”; a condition that tells them apart may be missing. Identical values can stand only once.

PLK4 (h), sequence (O00444 whole entry): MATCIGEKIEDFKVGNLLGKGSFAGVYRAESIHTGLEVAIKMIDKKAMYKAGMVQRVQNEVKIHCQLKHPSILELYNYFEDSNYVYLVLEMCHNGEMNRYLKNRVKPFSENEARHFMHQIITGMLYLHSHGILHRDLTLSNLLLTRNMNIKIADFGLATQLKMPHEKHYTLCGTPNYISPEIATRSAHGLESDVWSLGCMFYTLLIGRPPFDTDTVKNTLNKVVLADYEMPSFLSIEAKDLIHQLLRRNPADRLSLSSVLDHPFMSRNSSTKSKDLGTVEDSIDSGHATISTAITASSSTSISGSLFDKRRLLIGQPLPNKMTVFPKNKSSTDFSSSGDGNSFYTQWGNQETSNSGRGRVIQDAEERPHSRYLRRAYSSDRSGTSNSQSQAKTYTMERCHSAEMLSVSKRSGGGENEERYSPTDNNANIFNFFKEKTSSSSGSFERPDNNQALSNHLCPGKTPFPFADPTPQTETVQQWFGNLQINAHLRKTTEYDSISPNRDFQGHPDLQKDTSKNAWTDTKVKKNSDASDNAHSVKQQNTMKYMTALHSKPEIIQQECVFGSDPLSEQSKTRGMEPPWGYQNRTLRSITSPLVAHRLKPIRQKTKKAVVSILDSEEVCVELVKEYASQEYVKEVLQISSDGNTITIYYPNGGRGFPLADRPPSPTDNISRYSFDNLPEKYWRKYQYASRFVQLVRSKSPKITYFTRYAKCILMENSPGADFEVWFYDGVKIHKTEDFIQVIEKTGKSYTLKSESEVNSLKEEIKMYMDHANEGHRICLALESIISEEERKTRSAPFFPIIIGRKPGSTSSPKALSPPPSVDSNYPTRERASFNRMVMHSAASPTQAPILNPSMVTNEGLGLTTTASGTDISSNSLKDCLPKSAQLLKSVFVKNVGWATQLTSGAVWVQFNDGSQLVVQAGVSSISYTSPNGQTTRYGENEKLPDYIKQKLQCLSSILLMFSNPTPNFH
CDK1/CyclinB (h), sequence (P06493 whole entry): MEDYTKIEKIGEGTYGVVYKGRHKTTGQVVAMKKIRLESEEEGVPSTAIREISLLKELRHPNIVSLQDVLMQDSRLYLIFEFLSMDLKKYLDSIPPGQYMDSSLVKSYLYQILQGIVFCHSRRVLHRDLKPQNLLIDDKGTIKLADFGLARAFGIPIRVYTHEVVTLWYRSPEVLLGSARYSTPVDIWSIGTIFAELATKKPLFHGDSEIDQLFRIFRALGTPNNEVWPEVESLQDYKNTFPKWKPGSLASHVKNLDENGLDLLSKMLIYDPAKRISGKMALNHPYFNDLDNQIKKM
CDK1/CyclinB (h), sequence (P14635 whole entry partner): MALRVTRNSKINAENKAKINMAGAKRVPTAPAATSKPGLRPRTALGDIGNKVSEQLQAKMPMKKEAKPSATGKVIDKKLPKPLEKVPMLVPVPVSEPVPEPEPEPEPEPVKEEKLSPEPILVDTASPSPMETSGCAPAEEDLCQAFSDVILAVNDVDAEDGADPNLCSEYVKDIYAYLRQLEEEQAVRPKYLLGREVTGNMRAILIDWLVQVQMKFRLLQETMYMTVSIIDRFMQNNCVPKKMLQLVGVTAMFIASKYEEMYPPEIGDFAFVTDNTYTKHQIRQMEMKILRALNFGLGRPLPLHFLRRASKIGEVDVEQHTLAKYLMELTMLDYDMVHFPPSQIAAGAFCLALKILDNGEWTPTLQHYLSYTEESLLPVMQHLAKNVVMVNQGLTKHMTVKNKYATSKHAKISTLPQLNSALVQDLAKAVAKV
GSK3β (h), sequence (P49841 whole entry): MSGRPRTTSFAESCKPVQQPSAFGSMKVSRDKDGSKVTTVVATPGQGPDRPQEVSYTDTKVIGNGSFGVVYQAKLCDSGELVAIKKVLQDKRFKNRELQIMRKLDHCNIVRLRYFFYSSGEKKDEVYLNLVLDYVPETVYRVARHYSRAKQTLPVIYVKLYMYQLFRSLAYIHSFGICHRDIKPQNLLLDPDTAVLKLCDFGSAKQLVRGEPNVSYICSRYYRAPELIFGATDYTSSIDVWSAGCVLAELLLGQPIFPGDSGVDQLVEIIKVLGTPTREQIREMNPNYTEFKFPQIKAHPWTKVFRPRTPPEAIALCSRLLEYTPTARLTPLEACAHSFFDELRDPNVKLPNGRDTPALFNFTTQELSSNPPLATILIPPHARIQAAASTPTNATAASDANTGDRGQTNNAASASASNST

For the compound `CN1CCCCCCC(=O)N(C)CCCNc2ncnc3c2/C(=C/Nc2cccc(c2)C1)C(=O)N3` [Compound 74], the IC50 at PLK4 (h) was 5.62 µM; on AuroraB (h), greater than 10 µM; at GSK3β (h), greater than 10 µM; at CDK1/CyclinB (h), greater than 10 µM.
Turning to `COc1ccc2cc1CN(C)CCCCC(=O)N(C)CCNc1ncnc3c1/C(=C/N2)C(=O)N3` [Compound 75], the IC50 was 5.89 µM at PLK4 (h), greater than 10 µM at AuroraB (h), 0.562 µM at GSK3β (h) and 5.37 µM on CDK1/CyclinB (h).
`CN1CCNc2ncnc3c2/C(=C/Nc2ccc(Cl)c(c2)OCCCCCCC1=O)C(=O)N3` [Compound 78]: the IC50 at PLK4 (h) is greater than 10 µM; on AuroraB (h), 7.59 µM; on GSK3β (h), 2.19 µM; on CDK1/CyclinB (h), greater than 10 µM.
For the compound `CN1CCCCC(=O)N(C)CCNc2ncnc3c2/C(=C/Nc2cccc(c2)C1)C(=O)N3` [Compound 79], the IC50 on PLK4 (h) is 3.31 µM; on AuroraB (h) it was 9.12 µM; on GSK3β (h), 0.813 µM; on CDK1/CyclinB (h) it was 8.91 µM.
The like results for `CN1CCCCCC(=O)N(C)CCNc2ncnc3c2/C(=C/Nc2cccc(c2)C1)C(=O)N3` [Compound 80] were, in that order, 1.41 µM, greater than 10 µM, 4.68 µM and greater than 10 µM.
In the case of `CN1CCCCCC(=O)N(C)CCCNc2ncnc3c2/C(=C/Nc2cccc(c2)C1)C(=O)N3` [Compound 81], the IC50 on PLK4 (h) was 1.07 µM; at AuroraB (h), greater than 10 µM; at GSK3β (h), 2.75 µM; at CDK1/CyclinB (h), greater than 10 µM.
For the compound `CN1CCCC(=O)N(C)CCNc2ncnc3c2/C(=C/Nc2cccc(c2)C1)C(=O)N3` [Compound 82], the IC50 at PLK4 (h) is 6.17 µM; on AuroraB (h) it was greater than 10 µM; on GSK3β (h), 1.05 µM; on CDK1/CyclinB (h), greater than 10 µM.
Take `CN1CCCCCCC(=O)N(C)CCNc2ncnc3c2/C(=C/Nc2cccc(c2)C1)C(=O)N3` [Compound 83]: the IC50 at PLK4 (h) is 1.66 µM; at AuroraB (h) it was greater than 10 µM; on GSK3β (h), 2.19 µM; on CDK1/CyclinB (h) it was greater than 10 µM.
Turning to `CN1CCCC(=O)N(C)CCCN(C)c2ncnc3c2/C(=C/Nc2ccc(Cl)c(c2)C1)C(=O)N3` [Compound 90], the IC50 at PLK4 (h) was 5.5 µM; on AuroraB (h) it was greater than 10 µM; on GSK3β (h), 0.617 µM; on CDK1/CyclinB (h), greater than 10 µM.
`CN1CCCCC(=O)N(C)CCCN(C)c2ncnc3c2/C(=C/Nc2ccc(Cl)c(c2)C1)C(=O)N3` [Compound 91]: the IC50 at PLK4 (h) is greater than 10 µM; on AuroraB (h), greater than 10 µM; on GSK3β (h) it was 0.977 µM; at CDK1/CyclinB (h), greater than 10 µM.
For the compound `CN1CCN(c2ccc3cc2CN(C)CCCCC(=O)N(C)CCNc2ncnc4c2/C(=C/N3)C(=O)N4)CC1` [Compound 92], the IC50 on PLK4 (h) is 1.29 µM; at AuroraB (h), greater than 10 µM; on GSK3β (h), 1.48 µM; on CDK1/CyclinB (h), greater than 10 µM.
Take `CN1CCCC(=O)N(C)CCNc2ncnc3c2/C(=C/Nc2ccc(N4CCOCC4)c(c2)C1)C(=O)N3` [Compound 94]: the IC50 at PLK4 (h) was 5.13 µM; at AuroraB (h) it was greater than 10 µM; at GSK3β (h), 1.05 µM; on CDK1/CyclinB (h) it was greater than 10 µM.
Take `COc1cc2cc(c1OC)CN(C)CCCCC(=O)N(C)CCCNc1ncnc3c1/C(=C/N2)C(=O)N3` [Compound 95]: the IC50 at PLK4 (h) is 2.69 µM; on AuroraB (h) it was greater than 10 µM; at GSK3β (h), 3.16 µM; at CDK1/CyclinB (h), 1.15 µM.
On to `CN1CCCCC(=O)N(C)CCCNc2ncnc3c2/C(=C/Nc2ccc(N4CCOCC4)c(c2)C1)C(=O)N3` [Compound 96], for which the IC50 was 0.741 µM on PLK4 (h), greater than 10 µM on AuroraB (h), 0.708 µM on GSK3β (h) and 3.39 µM at CDK1/CyclinB (h).
Consider `N#Cc1ccc2cc1OCCCC(=O)N1CCN(CC1)c1ncnc3c1/C(=C/N2)C(=O)N3` [Compound 98], for which the IC50 on PLK4 (h) was greater than 10 µM; at AuroraB (h), greater than 10 µM; on GSK3β (h), 0.776 µM; at CDK1/CyclinB (h) it was greater than 10 µM.
Regarding `CN1CCNc2ncnc3c2/C(=C/Nc2cc(cc(C(F)(F)F)c2)OCCCC1=O)C(=O)N3` [Compound 127], the IC50 at PLK4 (h), on AuroraB (h), on GSK3β (h) and on CDK1/CyclinB (h) was greater than 10 µM throughout.
As for `CN1CCNc2ncnc3c2/C(=C/Nc2cc(cc(C(F)(F)F)c2)OCCCCC1=O)C(=O)N3` [Compound 128], the IC50 on PLK4 (h), at AuroraB (h), on GSK3β (h) and at CDK1/CyclinB (h) was greater than 10 µM throughout.
`CN1CCCCCC(=O)N(C)CCNc2ncnc3c2/C(=C/Nc2ccc(N4CCOCC4)c(c2)C1)C(=O)N3` [Compound 131]: the IC50 was 0.452 µM on PLK4 (h), greater than 10 µM on AuroraB (h), 6.38 µM at GSK3β (h) and greater than 10 µM on CDK1/CyclinB (h).
As to `CN1CCN(c2ccc3cc2OCCCCCC(=O)N(C)CCNc2ncnc4c2/C(=C/N3)C(=O)N4)CC1` [Compound 141], the IC50 on PLK4 (h) was 0.692 µM; on AuroraB (h), greater than 10 µM; on GSK3β (h) it was 0.447 µM; at CDK1/CyclinB (h), 7.59 µM.
For `COc1ccc2cc1OCC(=O)N[C@H](Cc1ccccc1)CN(C)CCNc1ncnc3c1/C(=C/N2)C(=O)N3` [Compound 191], the IC50 was 1.66 µM and 2.09 µM and > 10 µM at PLK4 (h); 3.39 µM and 3.55 µM and > 10 µM at AuroraB (h); 2.45 µM with A2780 (Homo sapiens, A2780, 72 h, read-out: pIC50 A2780 (converted)); 2.4 µM in the experiment on HCT-116 (Homo sapiens, HCT-116, 72 h, read-out: pIC50 HCT-116 (converted)); greater than 10 µM in the experiment on H1299. For the same compound, the “pIC50 A2780” value in the experiment with A2780 is 5.47. In addition, in the experiment with HCT-116, the “pIC50 HCT-116” value was 5.55 and 5.77.

(Values after patent US8338422B2, “Indolin-2-ones and aza-indolin-2-ones” (Janssen Pharmaceutica NV, priority 2007, dated 2012).)
